Key:
[1] = test system: purified CD4+ T cells from unprimed DO11.10 TCR Tg mice; experiment: Purified CD4+ T cells with mitomycin C-treated splenocytes and OVA peptide 323-339; format: cell-based; details: OVA peptide 323-339; FIG. 2
Description: The decreased proliferative response of CD4^+ T cells was not due to increased cell death as evident by similar numbers of CD4^+ 7AAD^− cells in all cultures after flow-cytometric analysis (FIG. 4).

[2] = test system: allergic airway inflammation; experiment: Mouse model of allergic asthma (OVA/alum sensitization, aerosolized OVA); format: in vivo, BALB/c mice
Experimental: BALB/c mice were sensitized with 0.01 mg chicken ovalbumin (OVA) in 0.2 ml alum intraperitoneally on days 0 and 12, and were exposed to aerosolized OVA (5% for 20 min) on days 18-20.

[3] = test system: response to OVA in EAE-induced mice; experiment: EAE mice treated for 15 days, then immunized with OVA/CFA; format: in vivo, C57BL/6 mice
Experimental: Treatment stopped and mice were then injected with OVA/CFA (Complete Freund's Adjuvant).
Instead, the response to a new antigen that the mice are exposed to is enhanced.

Q: How did the proliferation [1] turn out when `C[C@]12CC[C@H](O)CC1=CC[C@@H]1[C@@H]2CC[C@]2(C)C(=O)CC[C@@H]12` [DHEA, dehydroepiandrosterone] was run?
A: significantly decreased

Q: And the “secretion of IFN-γ” value [1]?
A: significantly decreased

Q: What about the “secretion of IL-2” value [1] of the same compound?
A: significantly decreased

Q: What about the “levels of OVA-specific IgE” value ([2]; 2 mg/mouse) of the same compound?
A: significantly decreased

Q: What about the “levels of OVA-specific IgG1” value ([2]; 2 mg/mouse) of the same compound?
A: significantly decreased

Q: And the “levels of OVA-specific IgG2a” value ([2]; 2 mg/mouse)?
A: significantly decreased

Q: What about the “numbers of CD3+CD4+ CD25+ Foxp3+ T cells (T regulatory cells)” value ([2]; 2 mg/mouse) of the same compound?
A: substantially increased

Q: And the “numbers of suppressive CD11c+PDCA-1+ plasmacytoid dendritic cells (pDCs)” value ([2]; 2 mg/mouse)?
A: substantially increased

Q: What about the “numbers of eosinophils in the bronchoalveolar lavage (BAL)” value ([2]; 2 mg/mouse on days 0,1,2,12,13,14,18,19,20, vs PBS-treated mice, FIG. 14a) of the same compound?
A: significantly decreased

Q: And the “numbers of lymphomononuclear cells in the bronchoalveolar lavage (BAL)” value ([2]; 2 mg/mouse, vs PBS-treated mice, FIG. 14a)?
A: significantly decreased

Q: And the lung leukocytic infiltration ([2]; 2 mg/mouse, FIG. 14b)?
A: significantly decreased

Q: What about the “OVA-specific T cell proliferation” value ([2]; draining lymph nodes, FIG. 14c) of the same compound?
A: significantly decreased

Q: And the “allergic airway inflammation, Th2 responses and B cell responses” value ([2]; overall conclusion of Example 3)?
A: suppress

Q: What about the “production of IFN-γ” value ([3]; after OVA/CFA immunization) of the same compound?
A: increased

Q: And the “T cell response to OVA ex vivo (3H-Thymidine incorporation)” value ([3]; after OVA/CFA immunization, FIG. 40)?
A: substantially increased

Q: And the “EAE phenotype after end of treatment and OVA/CFA injection” value ([3]; in comparison to control mice)?
A: stable phenotype without any deterioration

Q: And the “protection from EAE” value ([3]; treated 15 days from shortly after disease onset, then OVA/CFA)?
A: clearly protected
